Data on seven compounds can be found in US20170050962A1, “IMIDAZO[1,2-A]PYRIDINES AS STIMULATORS OF SOLUBLE GUANYLATE CYCLASE FOR TREATING CARDIOVASCULAR DISEASES” (BAYER PHARMA AKTIENGESELLSCHAFT, priority 2014, published 2017).

The experiment concerns recombinant guanylate cyclase reporter cell line. Nature of the experiment: Effect on a recombinant guanylate cyclase reporter cell line. The format is cell-based. Conditions: in some cases mean values for individual determinations. The protocol: B-2. Effect on a Recombinant Guanylate Cyclase Reporter Cell Line
The cellular activity of the compounds according to the invention is determined using a recombinant guanylate cyclase reporter cell line, as described in F. Wunder et al., Anal. Biochem. 339, 104-112 (2005).
Representative MEC values (MEC=minimum effective concentration) for the compounds of the invention are shown in the table below (in some cases as mean values for individual determinations): […]
`Cc1cc(OCc2c(F)cccc2F)c2nc(C)c(C3=CC(=NO)CC(C)(C)N3)n2c1` (stereo in doubt) [Example 5, (4E)-6-{8-[(2,6-Difluorobenzyl)oxy]-2,6-dimethylimidazo[1,2-a]pyridin-3-yl}-N-hydroxy-2,2-dimethyl-2,3-dihydropyridine-4(1H)-imine]: the “MEC (minimum effective concentration)” value stood at 0.03 µM.

In the case of `Cc1cc(OCc2c(F)cccc2F)c2nc(C)c(-c3ccc(=O)n(CC(C)(C)N)c3)n2c1` [Example 1, 1-(2-Amino-2-methylpropyl)-5-{8-[(2,6-difluorobenzyl)oxy]-2,6-dimethylimidazo[1,2-a]pyridin-3-yl}pyridin-2(1H)-one], the “MEC (minimum effective concentration)” value stood at 1.0 µM.

Regarding `Cc1cc(OCc2c(F)cccc2F)c2nc(C)c(-c3ccc(OCC(C)(C)N)nc3)n2c1` [Example 2, 1-[(5-{8-[(2,6-Difluorobenzyl)oxy]-2,6-dimethylimidazo[1,2-a]pyridin-3-yl}pyridin-2-yl)oxy]-2-methylpropan-2-amine], the “MEC (minimum effective concentration)” value was 0.3 µM.

In the case of `Cc1cc(OCc2c(F)cccc2F)c2nc(C)c(-c3ccn(CC(C)(C)N)c(=O)c3)n2c1` [Example 3, 1-(2-Amino-2-methylpropyl)-4-{8-[(2,6-difluorobenzyl)oxy]-2,6-dimethylimidazo[1,2-a]pyridin-3-yl}pyridin-2(1H)-one], the “MEC (minimum effective concentration)” value is 1.0 µM.

For the compound `Cc1cc(OCc2c(F)cccc2F)c2nc(C)c(-c3ccnc(OCC(C)(C)N)c3)n2c1` [Example 4, 1-[(4-{8-[(2,6-Difluorobenzyl)oxy]-2,6-dimethylimidazo[1,2-a]pyridin-3-yl}pyridin-2-yl)oxy]-2-methylpropan-2-amine], the “MEC (minimum effective concentration)” value is 0.03 µM.

As to `Cc1cc(OCc2c(F)cccc2F)c2nc(C)c(-c3nc(OCC(C)(C)N)n[nH]3)n2c1` [Example 6, 1-[(5-{8-[(2,6-Difluorobenzyl)oxy]-2,6-dimethylimidazo[1,2-a]pyridin-3-yl}-1H-1,2,4-triazol-3-yl)oxy]-2-methylpropan-2-amine], the “MEC (minimum effective concentration)” value was 3.0 µM.

`Cc1cc(OCc2c(F)cccc2F)c2nc(C)c(-c3cc[nH]c(=O)c3)n2c1` [Example 8, 4-{8-[(2,6-Difluorobenzyl)oxy]-2,6-dimethylimidazo[1,2-a]pyridin-3-yl}pyridin-2(1H)-one]: the “MEC (minimum effective concentration)” value turned out to be 1.0 µM.
